Entries after “also recorded” stand apart in the source; their conditions may differ.

The text below walks through data of patent publication US9884065B2, “Inhibiting activity of senescent cells using a glucocorticoid” (Buck Institute for Research on Aging, priority 2011, dated 2018).

For one data set, the system named is HCA2 human fibroblasts. Conditions: 2.5 μM, 48 hours. The method, then:
(§1) The initial drug screen was performed in a 96-well format using automated liquid handling with a Biomek FX (Beckman Coulter, CA). Senescent cells were plated 24 hours after X-irradiation at 7,500 cells per well in 96-well plates. Six days after plating the senescent cells, the pre-senescent cells were plated at 7,500 cells per well in 96-well plates. Twenty-four hours after pre-senescent plating, both pre-senescent and senescent cells were washed and incubated in low (0.2%) serum for 48 hours to arrest cell proliferation of the pre-senescent cells. Drugs from the Prestwick Chemical Library, which contains 1120 bio-available compounds in DMSO, were given to the cells at 2.5 μM in media containing 0.2% serum. Forty-eight hours after compound addition, the medium in each well was removed and frozen for assay by ELISA to quantitate the levels of IL-6. The cells, which remained in the wells after the medium was removed, were lysed and ATP levels were measured (ATPlite 1-step assay, Perkin Elmer, MA) to exclude compounds that lowered IL-6 through toxicity (cell death). Experimental wells in each plate were normalized to plate mean or same-plate DMSO controls for the ELISA and ATP assays, respectively.
To identify small molecules that may be potential SASP modulators, a screening strategy that entailed administering compounds to parallel 96-well plates containing human fibroblasts (strain HCA2) that were either quiescent or senescent was developed. The compounds tested comprised the Prestwick Chemical Library, a collection of approximately 1,120 Federal Drug Administration-approved drugs. The compounds were added to duplicate wells at a single concentration (2.5 μM). After 48 hours, the medium from each well was removed, and the cells were lysed. […] Cell lysates were assayed for ATP as a surrogate for cell number.

Data set [1] concerns IL-6. The data set is described as follows: Initial drug screen (Prestwick Chemical Library), IL-6 ELISA of medium. In kind it is cell-based, human. As to conditions: 2.5 μM, 48 hours, HCA2 fibroblasts, 0.2% serum. The method, then: as §1, with “Drugs from the Prestwick Chemical Library, which contains 1120 bio-available compounds in DMSO, were given to the cells at 2.5 μM in media containing 0.2% serum.” left out
To identify small molecules that may be potential SASP modulators, a screening strategy that entailed administering compounds to parallel 96-well plates containing human fibroblasts (strain HCA2) that were either quiescent or senescent was developed. […] After 48 hours, the medium from each well was removed, and the cells were lysed. […] Cell lysates were assayed for ATP as a surrogate for cell number.
(In general: ELISA stands for enzyme-linked immunosorbent assay.)

Data set [2] has as its system senescent cells. Briefly: Doxorubicin-induced senescent cells in tissues of p16-3MR mice (mRFP and p16INK4a mRNA). As to conditions: doxorubicin 10 mg/kg vs untreated control mice. The data set is classed as in vivo, mouse. The text has this: Similar results were observed when the senescent cell accumulation was induced with the chemotherapeutic agent, doxorubicin. […] Various tissues were isolated (liver, heart, lung, kidney, and spleen) and measured for abundance of mRNAs encoding mRFP and p16INK4a as markers for senescent cells (see FIGS. 5A and 5B, respectively).

For data set [3], the system named is B16 mouse melanoma cells. Briefly: Subcutaneous B16 melanoma in doxorubicin-treated p16-3MR mice. The data set is classed as in vivo. Conditions: for p16INK4a and mRFP expression in skin biopsies / tumor diameters: doxorubicin 10 mg/kg with or without GCV; for tumor diameters / growth/size of subcutaneous B16 melanoma tumors: 12 days after B16 injection; for growth/size of subcutaneous B16 melanoma tumors: doxorubicin 10 mg/kg, GCV 25 mg/kg daily for 7 days starting 7 days later. As for the experimental part: Briefly, p16-3MR transgenic mice were treated with vehicle (ctrl) or 10 mg/kg doxorubicin. Seven days after doxorubicin treatment, mice were treated daily with GCV (25 mg/kg) for 7 days or vehicle only. 3 days after the last GCV treatment, 4×10^5 B16 mouse melanoma cells were injected subcutaneously into the p16-3MR transgenic mice, and mice were sacrificed after 12 days for analysis.

Data set [4] deals with senescent cells. The data set is described as follows: Detection and clearance of senescent cells in irradiated p16-3MR transgenic mice (rLUC bioluminescence, SASP biomarker RNA). In kind it is in vivo, mouse. The method, then: Briefly, a group of p16-3MR transgenic mice were exposed to whole body ionizing radiation (7 Gy X-ray) and a control group of p16-3MR transgenic mice were mock-irradiated. After three months, the mice were treated with GCV (25 mg/kg) or vehicle only, and then at least two weeks later bioluminescence in tissues was examined after administering the rLUC substrate.

Data set [5] relates to B16 mouse melanoma cells. Briefly: B16 melanoma tail-vein injection in irradiated p16-3MR mice (primary tumors and metastases, fLUC bioluminescence). The data set is classed as in vivo. The method, then:
Briefly, 10^6 B16 mouse melanoma cells, a highly aggressive cell line that is syngeneic with p16-3MR transgenic mice (C57B16 background), that express firefly luciferase (fLUC, to enable their detection by bioluminescence) were injected into the tail vein of the p16-3MR transgenic mice approximately three months after being either mock irradiated or irradiated, as described in Example 2. Irradiated mice were treated daily with GCV (25 mg/kg) or vehicle only for 7 days, and then 3 days following the last GCV dose, B16 mouse melanoma cells were injected into the mice. B16 mouse melanoma cells first colonize the lung, where they form primary tumors approximately two weeks after injection, and thereafter metastasize to distal tissues to form secondary tumors in, for example, the pancreas, liver and visceral fat. The bioluminescence markers, fLUC and rLUC are distinguishable because the enzymes use different substrates.

In the next data set the test system is NF-κB. Briefly: NF-κB reporter-luciferase transactivation assay. In kind it is cell-based, human. As to conditions: 0.5 μM RU-486 or 2.5 ng mL^−1 IL-1α. The method, then: Nuclear extracts were prepared using the nuclear extract kit (Active Motif), and NF-κB DNA binding was determined using the TransAM NF-κB p65 kit (Active Motif). For transactivation assays, cells infected with the NF-κB reporter-luciferase lentivirus were lysed in buffer (Promega), and luciferase activity was normalized to cell number, as described (Freund et al., 2011, EMBO J. 30:1536-1548).

Data set [6] concerns IL-6. Briefly: IL-6 ELISA of conditioned media from X-irradiated senescent HCA2 fibroblasts. The data set is classed as cell-based, human. Conditions: 50 nM corticosterone or 100 nM cortisol; rIL-1α given six days after irradiation, 24 hours. As for the experimental part:
To validate glucocorticoids as SASP regulators, they were added within 15 min after irradiation (unless otherwise indicated). For cells induced to senesce by MKK6 or RAS overexpression, glucocorticoid treatment started 16 hours after infection. Glucocorticoids were re-added in fresh media every other day. Six days after irradiation or selection, cells were given serum-free DMEM with or without glucocorticoid for 24 hours; the conditioned media were collected and frozen for ELISAs.
Conditioned media were filtered and stored at −80° C. Cell numbers were determined in every experiment. ELISAs were performed using kits and procedures from PerkinElmer (IL-6 AL223F). Data were normalized and expressed as pg/ml/cell/24 h.
To confirm the ability of corticosterone to suppress senescence-associated IL-6 secretion, fresh HCA2 fibroblast cultures were prepared, and senescence was induced by X-irradiation (10 Gy). Under these conditions, cells undergo growth arrest within 24-48 hours, but require 4-5 days before SASP components are detected in the medium (Coppe et al., 2008, PLoS Biol. 6:2853-2868; Rodier et al., 2009, Nature Cell Biol. 11:973-979; Coppe et al., 2010, PLoS ONE 5:e9188; Freund et al., 2011, EMBO J. 30:1536-1548). Varying concentrations of corticosterone were added immediately after irradiation, and the cells were maintained in the drug for 6 days. On the 6th day, the cells were incubated in serum-free medium with or without corticosterone, the conditioned medium was collected 24 h later, and the medium was assayed for IL-6 by ELISA. […] The ability of corticosterone to suppress IL-6 secretion by senescent cells was not peculiar to HCA2 cells.

Setting [7] is: irradiated + GCV, eighteen days after injection.

For the compound `C[C@]12CC[C@@H](O)C[C@@H]1CC[C@@H]1[C@@H]2CC[C@]2(C)C(=O)CC[C@@H]12` [androsterone], in the data set with HCA2 human fibroblasts, the ATP levels entry is listed as “without altering ATP levels”. For the same compound, the “IL-6 secretion (ELISA)” value with IL-6 [1] is “suppressed IL-6 secretion”.
With `COc1cccc2c1C(=O)c1c(O)c3c(c(O)c1C2=O)C[C@@](O)(C(=O)CO)C[C@@H]3O[C@H]1C[C@H](N)[C@H](O)[C@H](C)O1` [doxorubicin], the “mRFP and p16INK4a mRNA in liver, heart, lung, kidney, spleen” value with senescent cells [2] was “higher levels of mRFP and p16INK4a in all tissues”. Besides, in the data set with B16 mouse melanoma cells [3], the “p16INK4a and mRFP expression in skin biopsies” value is “increased senescence”; the tumor diameters result is reported as “increased tumor sizes”; the “growth/size of subcutaneous B16 melanoma tumors” value is “stimulated the growth of B16 melanoma cells; also recorded: Tumor growth was increased”.
For the compound `C#C[C@]1(O)CC[C@H]2[C@@H]3CCC4=CC(=O)CC[C@@H]4[C@H]3CC[C@@]21CC` [norgestrel-(−)-D], in the data set on IL-6 [1], the “IL-6 secretion (ELISA)” value was “suppressed IL-6 secretion”.
On to `Cc1ccc(S(=O)(=O)NC(=O)NN2CCCCCC2)cc1` [tolazamide], for which the ATP levels result in the data set with HCA2 human fibroblasts is given as “without altering ATP levels”. The “IL-6 secretion (ELISA)” value in the data set on IL-6 [1] is “suppressed IL-6 secretion”.
The like results for `CC(C)(C)NC(=O)[C@H]1CC[C@H]2[C@@H]3CC[C@H]4NC(=O)C=C[C@]4(C)[C@H]3CC[C@]12C` [finasteride] were, in that order, “without altering ATP levels” and “suppressed IL-6 secretion”.
As to `C/C(=C(\CCOP(=O)(O)O)SC(=O)c1ccccc1)N(C=O)Cc1cnc(C)nc1N` [benfotiamine], the ATP levels result with HCA2 human fibroblasts is recorded as “without altering ATP levels”. Besides, the “IL-6 secretion (ELISA)” value with IL-6 [1] was “suppressed IL-6 secretion”.
In the case of `C[C@]12CC[C@@H]3c4ccc(O)cc4CC[C@H]3[C@@H]1CC[C@@H]2O` [estradiol-17-beta], in the data set on IL-6 [1], the “IL-6 secretion (ELISA)” value is “suppressed IL-6 secretion”.
With `Nc1cc(N2CCCCC2)nc(N)[n+]1[O-]` [minoxidil], in the data set on HCA2 human fibroblasts, the ATP levels entry was “without altering ATP levels”.
For `CCCNC(=O)NS(=O)(=O)c1ccc(Cl)cc1` [chlorpropamide], in the data set with HCA2 human fibroblasts, the ATP levels entry is “without altering ATP levels”. The “IL-6 secretion (ELISA)” value in the data set on IL-6 [1] is “suppressed IL-6 secretion”.
`Nc1nc(O)c2ncn(COC(CO)CO)c2n1` [GCV, ganciclovir]: in the data set on senescent cells [4] (irradiated (7 Gy) p16-3MR mice, GCV 25 mg/kg three months after irradiation, lung tissue shown), the “rLUC expression levels (bioluminescence in tissues)” value is “comparable to unirradiated mice”. In addition, the “p16INK4a (p16), IL-6, MMP-3 and mRFP RNA expression levels” value with senescent cells [4] (irradiated p16-3MR mice treated with GCV) was “returned p16INK4a (p16), IL-6, MMP-3 and mRFP expression levels to those found in the unirradiated control mice”. In the data set with B16 mouse melanoma cells [5] (18 days after injection), the “metastatic B16 melanoma cells, Fat (estimated % of total area of fat)” value is recorded as 25% and the “metastatic B16 melanoma cells, Liver” value was 7 ± 3.6 nodules. For the same compound, the “metastatic B16 melanoma cells, Lung (luminescent nodules)” value in the data set with B16 mouse melanoma cells [5] (18 days after injection, TNTC = too numerous to count) is listed as “TNTC”. Besides, the “B16 cells as detected by luminescence” value in the data set with B16 mouse melanoma cells [5] (irradiated + GCV, day 18) is “still showed relatively low levels of B16 cells”. In addition, in the data set with B16 mouse melanoma cells [5] (setting [7]), the “metastases in distal organs (liver, fat)” value is “almost devoid of metastases” and the primary lung tumors result was “large primary lung tumors were evident”. Further, the “B16 cells as detected by luminescence” value in the data set with B16 mouse melanoma cells [5] (irradiated + GCV, fifteen days after injection) is listed as “relatively low levels of B16 cells”. Also, the “primary tumors and metastases” value with B16 mouse melanoma cells [5] (irradiated mice, GCV 25 mg/kg daily for 7 days, 15 days after B16 injection) is “much smaller primary tumors and many fewer metastases”. Besides, in the data set on B16 mouse melanoma cells [3], the “p16INK4a and mRFP expression in skin biopsies” value was “low levels of p16INK4a and mRFP expression”; the tumor diameters entry was “smaller tumor sizes”; the “growth/size of subcutaneous B16 melanoma tumors” value is “substantially reduced the size of B16 melanoma tumors; also recorded: much smaller primary tumors”.
As for “Recombinant IL-1α: recombinant IL-1α protein added to glucocorticoid-treated senescent cells”, in the data set with NF-κB, the “NF-κB transactivation activity, co-treatment with either glucocorticoid” value was “rescued NF-κB transactivation activity”. In addition, the “IL-6 secretion suppressed by corticosterone and cortisol, added recombinant IL-1α” value in the data set on IL-6 [6] was “rescued the suppression of IL-6 secretion”.
As to `Cc1ccc(S(=O)(=O)NC(=O)NN2CC3CCCC3C2)cc1` (stereo not drawn) [gliclazide], the ATP levels entry in the data set with HCA2 human fibroblasts was “without altering ATP levels”. Besides, the “IL-6 secretion (ELISA)” value in the data set on IL-6 [1] was “suppressed IL-6 secretion”.
As to `C[C@]12C=CC(=O)C=C1CC[C@@H]1[C@@H]2C(=O)C[C@@]2(C)[C@H]1CC[C@]2(O)C(=O)CO` [prednisone], the ATP levels result in the data set on HCA2 human fibroblasts is recorded as “without altering ATP levels”. Besides, the “IL-6 secretion (ELISA)” value in the data set on IL-6 [1] was “suppressed IL-6 secretion”.
